Key:
Format in all cases: in vivo
Echinochloa crus-galli [1] = assay: Test Example 1: herbicidal effect test by treatment of rice paddy soil (immediately after seeding); conditions: 120 g/10a active ingredient, dry weight vs untreated area, 14 days after treatment
Summary of the method: (§1)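 Application occurs immediately after seeding, with diluted emulsion added to paddy water (about 3 cm deep) over puddled, fertilized soil at 120 g active ingredient per 10 ares. Herbicidal rate is calculated from mean dry weight against untreated controls 14 days later.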

Scirpus juncoides [2] = assay: as above; conditions: 120 g/10a active ingredient, dry weight vs untreated area, 14 days after treatment
Summary of the method: as §1

[3] = test system: broad leaf weeds (Lindernia pyxidaria and Monochoria vaginalis); assay: as above; conditions: 120 g/10a active ingredient, dry weight vs untreated area, 14 days after treatment
Summary of the method: as §1

Echinochloa crus-galli [4] = assay: Test Example 2: herbicidal effect test by treatment during growing period in paddy rice cultivation (seven days after seeding); conditions: 120 g/10a active ingredient, assessed 14 days after treatment, dry weight vs untreated area
Summary of the method: (§2)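 Herbicidal rate (%) = {1 − treated/untreated mean plant dry weight} × 100, assessed in duplicate 14 days post-treatment. Emulsion formulations were diluted in water and dropped onto flooded (about 3 cm) paddy pots 7 days after seeding, giving 120 g a.i. per 10 ares. Plants were grown in a glass greenhouse.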

Scirpus juncoides [5] = assay: as above; conditions: 120 g/10a active ingredient, assessed 14 days after treatment, dry weight vs untreated area
Summary of the method: as §2

[6] = test system: broad leaf weeds (Lindernia pyxidaria and Monochoria vaginalis); assay: as above; conditions: 120 g/10a active ingredient, assessed 14 days after treatment, dry weight vs untreated area
Summary of the method: as §2

Amaranthus viridis [7] = assay: Test Example 3: herbicidal effect test by treatment of dry field farming soil (one day after seeding); conditions: 120 g/10a active ingredient, evaluated 14 days after treatment
Summary of the method: (§3)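 Herbicidal rate (%) equals 1 minus treated/untreated mean plant dry weight, times 100, taken 14 days after treatment in duplicate pots. Emulsion diluted in water was applied at 100 L per 10 ares (120 g a.i. per 10 ares) one day after sowing 20 seeds per species into the top 1 cm of alluvial soil.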

Chenopodium album [8] = assay: as above; conditions: 120 g/10a active ingredient, evaluated 14 days after treatment
Summary of the method: as §3

Echinochloa crus-galli [9] = assay: as above; conditions: 120 g/10a active ingredient, evaluated 14 days after treatment
Summary of the method: as §3

southern crabgrass [10] = assay: as above; conditions: 120 g/10a active ingredient, evaluated 14 days after treatment
Summary of the method: as §3

Amaranthus viridis [11] = assay: Test Example 4: herbicidal effect test by treatment of leave and stem in dry field farming (seven days after seeding); conditions: 120 g/10a active ingredient; emulsion sprayed seven days after seeding; evaluated 14 days after treatment
Experimental: (§4) This test was conducted in a double system per one agent solution concentration area, and the herbicidal rates (%) were determined by the following equation (Math. 1) on 14 days after the treatment with the agents. Herbicidal Rate (%)={1-(Average Dry Weight (g) of Plant of Treated Area)/(Average Dry Weight (g) of Plant of Untreated Area)}×100 [Math. 1]
(§5) Herbicidal Effect Test by Treatment of Leave and Stem in Dry Field Farming
(§6) Pots with a size of 36 cm^2 were filled with a dry field farming soil (alluvium). The soil of the top layer of 1 cm and seeds of weeds, namely southern crabgrass, Echinochloa crus-galli, Chenopodium album and Amaranthus viridis, 20 seeds each, were evenly mixed, and the top layer was gently pressed. Emulsions prepared using the compounds in Table 6 below according to Formulation Example 5 were diluted with water seven days after seeding, and the water-diluted agent solutions were sprayed to the soil surfaces at a ratio of 100 liters per 10 ares. The converted amount of the applied active ingredient corresponded to 120 g per 10 ares. The herbicidal effects were evaluated by the same standard as that in Test Example 1 on 14 days after the treatment with the agents. […] The compound numbers in Table 6 are the same as those in Table 1 and Table 2 above.

Chenopodium album [12] = assay: as above; conditions: 120 g/10a active ingredient; emulsion sprayed seven days after seeding; evaluated 14 days after treatment
Experimental: as §4, §5, §6

Echinochloa crus-galli [13] = assay: as above; conditions: 120 g/10a active ingredient; emulsion sprayed seven days after seeding; evaluated 14 days after treatment
Experimental: as §4, §5, §6

southern crabgrass [14] = assay: as above; conditions: 120 g/10a active ingredient; emulsion sprayed seven days after seeding; evaluated 14 days after treatment
Experimental: as §4, §5, §6

SMILES	Herbicidal rate (%) Echinochloa crus-galli (Echinochloa crus-galli [1]) [%]	Herbicidal rate (%) Scirpus juncoides (Scirpus juncoides [2]) [%]	Herbicidal rate (%) Lindernia pyxidaria [3] [%]	Herbicidal rate (%) Monochoria vaginalis [3] [%]	Herbicidal rate (%) Echinochloa crus-galli (Echinochloa crus-galli [4]) [%]	Herbicidal rate (%) Scirpus juncoides (Scirpus juncoides [5]) [%]	Herbicidal rate (%) Lindernia pyxidaria [6] [%]	Herbicidal rate (%) Monochoria vaginalis [6] [%]	herbicidal rate, Amaranthus viridis (Amaranthus viridis [7]) [%]	herbicidal rate, Chenopodium album (Chenopodium album [8]) [%]	herbicidal rate, Echinochloa crus-galli (Echinochloa crus-galli [9]) [%]	herbicidal rate, southern crabgrass (southern crabgrass [10]) [%]	herbicidal effect (herbicidal rate), Amaranthus viridis (Amaranthus viridis [11]) [%]	herbicidal effect (herbicidal rate), Chenopodium album (Chenopodium album [12]) [%]	herbicidal effect (herbicidal rate), Echinochloa crus-galli (Echinochloa crus-galli [13]) [%]	herbicidal effect (herbicidal rate), southern crabgrass (southern crabgrass [14]) [%]
CC(=O)N(c1ccccc1Cc1c(C)n(C(C)(C)C)oc1=O)S(=O)(=O)C(F)(F)F [Compound 1-293]	90	90	90	90	90	90	90	90	90	90	90	90	40	40	90	90
COC(=O)N(c1ccccc1Cc1c(C)n(C(C)(C)C)oc1=O)S(=O)(=O)C(F)(F)F [Compound 1-576]	90	90	90	90	90	90	90	90	90	90	90	90	40	40	90	90
COCC(C)n1oc(=O)c(Cc2ccccc2N(C(=O)Cc2ccccc2)S(=O)(=O)C(F)(F)F)c1C (stereo not drawn) [Compound 1-506]	90	90	90	90	90	90	90	90	90	90	90	90	40	40	90	90
Cc1c(Cc2ccccc2N(C(=O)C2CC2)S(=O)(=O)C(F)(F)F)c(=O)on1C(C)(C)C [Compound 1-403]	90	90	90	90	90	90	90	90	90	90	90	90	40	40	90	90
COCCOC(=O)N(c1ccccc1Cc1c(C)n(C(C)c2ccccc2)oc1=O)S(=O)(=O)C(F)(F)F (stereo not drawn) [Compound 1-736]	90	90	90	90	90	90	90	90	90	90	90	90	40	40	90	90
COCC(C)n1oc(=O)c(Cc2ccccc2N(C(=O)C2CCCCC2)S(=O)(=O)C(F)(F)F)c1C (stereo not drawn) [Compound 1-434]	90	90	90	90	90	90	90	90	90	90	90	90	40	40	90	90
CCC(C)n1oc(=O)c(Cc2ccccc2N(S(C)(=O)=O)S(=O)(=O)C(F)(F)F)c1C (stereo not drawn) [Compound 1-890]	90	90	90	90	90	90	90	90	90	90	90	90	40	40	90	90
Cc1c(Cc2ccccc2NS(=O)(=O)C(F)(F)F)c(=O)on1C [Compound 1-97]	100	100	100	100	90	90	80	60	0	0	90	90	40	40	90	90
Cc1c(Cc2ccccc2N(C(=O)C2CCCCC2)S(=O)(=O)C(F)(F)F)c(=O)on1C(C)(C)C [Compound 1-431]	90	90	90	90	90	90	90	90	90	90	90	90	40	40	90	90

— patent US11109593B2, “Isoxazolin-5-one derivative and herbicide containing same as active ingredient” (HOKKO CHEMICAL INDUSTRY CO., LTD., priority 2017, dated 2021)
